Earlier results in patent US12673064B2, “Biodegradable drug-polymer conjugate” (POLYACTIVA PTY LTD, priority 2019, dated 2026).

Columns and labels:
[1] = test system: monkeys
[2] = 0.002% dosage, week 1

SMILES	IOP and total outflow resistance [1]	uveoscleral outflow or aqueous flow [1]	effectiveness versus latanoprost 0.005% [2]
CCCCC[C@H](O)/C=C/[C@H]1[C@H](O)CC(=O)[C@@H]1SCCCSCC(=O)O [3,7-dithia-PGE1]	reduced	without affecting	
CC(C)OC(=O)CNc1cccc(CN(Cc2ccc(-n3cccn3)cc2)S(=O)(=O)c2cccnc2)n1 [Omidenepag isopropyl]			more effective than latanoprost 0.005%
